{
  "source": "ChEMBL document CHEMBL6114978",
  "about": "“Rational design and synthesis of pyrazole derivatives as potential SARS-CoV-2 Mpro inhibitors: An integrated approach merging combinatorial chemistry, molecular docking, and deep learning” (Bioorg Med Chem, 2025)",
  "set-up_in_all_cases": "species or system Severe acute respiratory syndrome-related coronavirus",
  "key": {"[1]": {"assay": "Inhibition of SARS-CoV Main protease"}, "[2]": {"assay": "Inhibition of SARS-CoV Main protease assessed as inhibition constant"}, "[3]": {"assay": "Inhibition of His-tagged SARS-CoV 3CLpro using Abz-SVTLQSG-Tyr(NO2)R as substrate by fluorometric assay"}},
  "data": [
    {"smiles": "CC(C)(C)c1ccc(N(C(=O)c2cnc[nH]2)[C@@H](C(=O)NC2CCCCC2)c2cccnc2)cc1", "values": [
      {"measurement": "IC50", "setting": "[1]", "value": 1.6, "unit": "µM"}
    ]},
    {"smiles": "Cc1cc(C(=O)N[C@@H](C)C(=O)N[C@H](C(=O)N[C@@H](CC(C)C)C(=O)N[C@H](/C=C/C(=O)OCc2ccccc2)C[C@@H]2CCNC2=O)C(C)(C)C)no1", "values": [
      {"measurement": "Ki", "setting": "[2]", "value": 3.3, "unit": "µM"}
    ]},
    {"smiles": "CC(=O)N[C@H](CN[C@H](C(=O)N[C@@H](CC(C)C)C(=O)N[C@@H](C[C@@H]1CCNC1=O)C(=O)Cn1[nH]c(=O)c2c([N+](=O)[O-])cccc2c1=O)[C@@H](C)OCc1ccccc1)C(C)C", "values": [
      {"measurement": "IC50", "setting": "[3]", "value": 0.6, "unit": "µM"}
    ]}
  ]
}
